1 compound from patent US7759313B2, “Induction method for cell differentiation” (Obschetstvo S Ogranichennoi Otvetstvennostiyu …, priority 2002, dated 2010) can be followed below.

Where two headings read alike, the source gives them in different places.

Data set [1] can be described thus: Peripheral blood leukocytes formula under Cyclophosphamide. The note with it: day 3 post CPH. The data set is classed as in vivo, mice. An excerpt:
(§1) Two groups of mice are used.

The format of data set [2] is in vivo, mice.
Description: as §1

Data set [3] in a line: Total leukocyte number in peripheral blood under Cyclophosphamide.

Regarding `O=P1(N(CCCl)CCCl)NCCCO1` (centres unmarked) [CPH, Cyclophosphamide], the Myelocytes in data set [1] (CPH 200 mg/kg (Dicarbamine group: 0.5 mg/kg 5 days prior and 5 days after)) is listed as 0%; in data set [1] it was 0 in mm^3. In data set [1], this compound showed a Monocytes of 4.649%. Moreover, the “Cellularity of bone marrow (number of cells)” value was found to be 8.2 ± 1.65 millions in data set [2] (CPH 200 mg/kg (Dicarbamine group: 0.5 mg/kg 5 days prior and 5 days after), day 3); 13.05 ± 2.75 millions in data set [2] (day 5 after CPH); 25.22 ± 2.75 millions in data set [2] (day 7 after CPH); 27.9 ± 2.75 millions in data set [2] (day 10 after CPH); 30.15 ± 6.6 millions in data set [2] (day 13 after CPH); 25.0 ± 3.16 millions in data set [2] (day 17 after CPH). In data set [2] (day 21 after CPH), the “Cellularity of bone marrow (number of cells)” value is listed as 26.55 ± 4.53 millions. The Total leukocyte number in data set [3] (CPH 200 mg/kg, day 5) turned out to be 4.38 ± 0.77 thousand in mm^3; in data set [3] (CPH 200 mg/kg, day 7), 10.50 ± 3.02 thousand in mm^3; in data set [3] (CPH 200 mg/kg, day 10), 6.44 ± 0.60 thousand in mm^3; in data set [3] (CPH 200 mg/kg, day 13), 12.20 ± 3.02 thousand in mm^3; in data set [3] (CPH 200 mg/kg, day 17), 12.20 ± 1.80 thousand in mm^3; in data set [3] (CPH 200 mg/kg, day 21), 11.86 ± 1.32 thousand in mm^3. The Total leukocyte number in data set [3] (single CPH 200 mg/kg (Dicarbamine group: 0.5 mg/kg daily 5 days before and 5 days after), day 3 post CPH) was found to be 1.06 ± 0.44 thousand in mm^3.
